Results as given in PubChem BioAssay (NCI).
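Method: 48-hour compound exposure of cells in 96-well plates, five concentrations, linear interpolation of endpoints. The concentration for full growth arrest is given as TGI.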

Legend:
Test in all cases: NCI-60 cell line screen, 48 h
786-0 renal = system: 786-0 renal
CAKI-1 renal = system: CAKI-1 renal
HCT-116 colon = system: HCT-116 colon
HL-60(TB) leukemia = system: HL-60(TB) leukemia
IGROV1 ovarian = system: IGROV1 ovarian
M14 melanoma = system: M14 melanoma
MDA-MB-435 = system: MDA-MB-435
NCI-H226 lung = system: NCI-H226 lung
NCI-H23 lung = system: NCI-H23 lung
NCI-H522 lung = system: NCI-H522 lung
SF-268 CNS = system: SF-268 CNS
SF-295 CNS = system: SF-295 CNS
U251 CNS = system: U251 CNS
UACC-257 melanoma = system: UACC-257 melanoma

Row | Compound | TGI (786-0 renal) [µM] | TGI (CAKI-1 renal) [µM] | TGI (HCT-116 colon) [µM] | TGI (HL-60(TB) leukemia) [µM] | TGI (IGROV1 ovarian) [µM] | TGI (M14 melanoma) [µM] | TGI (MDA-MB-435) [µM] | TGI (NCI-H226 lung) [µM] | TGI (NCI-H23 lung) [µM] | TGI (NCI-H522 lung) [µM] | TGI (SF-268 CNS) [µM] | TGI (SF-295 CNS) [µM] | TGI (U251 CNS) [µM] | TGI (UACC-257 melanoma) [µM]
1 | Cc1ccc2nc(C=Nc3ccc(Cl)cc3)cc(C)c2c1 | 35.3 | > 76.7 | 14.3 | 16.7 | 31.3 | 21.1 | 24.1 | 72.7 | 38 | 26.6 | 59.2 | 19.3 | 32.9 | 36.5
2 | O=C1C=CC(=O)c2c1ccc1c3ccccc3n(Cc3cccc([N+](=O)[O-])c3)c21 | > 61.4 | 31 | > 62.7 | 15.3 | 54.7 | 71.7 | > 65.2 | > 100 | 50.4 | 37.2 | > 100 | > 100 | > 100 | 60.1
3 | COc1ccc2cc(-c3nc(N)nc(N4N=C(C)CC4(C)C)n3)c(=N)oc2c1 | 36.3 | 38 | 35 | 43.9 | 37.8 | 38.1 | 42.1 | 40.6 | 31.8 | 27.8 | 33.8 | 33.2 | 41.9 | 95.7
4 | O=C1C=C(OCCCCl)C(=O)c2c(O)ccc(O)c21 | 2.94 | 3.4 | 1.28 | 3.03 | 3.44 | 0.341 | 0.364 | 3.7 | 0.479 | 4.26 | 3.16 | 3.2 | 3.56 | 0.358
